From PubChem BioAssay AID256 (DTP/NCI, 2004)
Several values for one entry are separate records, joined by “and”; a condition that tells them apart may be missing. Identical values can stand only once. Toxic doses and inconclusive results are not listed.

System: CD2F1 mice, L1210 leukemia ip, survival T/C
Test: NCI In Vivo Anticancer Drug Screen. Data for tumor model L1210 Leukemia (intraperitoneal) in CD2F1 (CDF1) mice
Settings: higher = longer survival
Procedure, shortened: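 Each value reflects a quotient of treated over vehicle control outcomes in mice with a transplanted tumor.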

[1] = endpoint: mean survival time, dose: 100.0 mg/kg/injection, schedule: Q04DX003 (ip), vehicle: saline
[2] = endpoint: mean survival time, dose: 200.0 mg/kg/injection, schedule: Q04DX003 (ip), vehicle: saline
[3] = endpoint: mean survival time, dose: 100.0 mg/kg/injection, schedule: Q01DX009 (ip), vehicle: saline with Tween-80
[4] = endpoint: mean survival time, dose: 100.0 mg/kg/injection, schedule: Q04DX003 (ip), vehicle: saline with Tween-80
[5] = endpoint: mean survival time, dose: 200.0 mg/kg/injection, schedule: Q01DX009 (ip), vehicle: saline with Tween-80
[6] = endpoint: mean survival time, dose: 200.0 mg/kg/injection, schedule: Q04DX003 (ip), vehicle: saline with Tween-80
[7] = endpoint: mean survival time, dose: 400.0 mg/kg/injection, schedule: Q01DX009 (ip), vehicle: saline with Tween-80
[8] = endpoint: mean survival time, dose: 400.0 mg/kg/injection, schedule: Q04DX003 (ip), vehicle: saline with Tween-80
[9] = endpoint: mean survival time, dose: 100.0 mg/kg/injection, schedule: Q01DX001 (ip), vehicle: saline with Tween-80
[10] = endpoint: mean survival time, dose: 200.0 mg/kg/injection, schedule: Q01DX001 (ip), vehicle: saline with Tween-80
[11] = endpoint: mean survival time, dose: 400.0 mg/kg/injection, schedule: Q01DX001 (ip), vehicle: saline with Tween-80
[12] = endpoint: mean survival time, dose: 25.0 mg/kg/injection, schedule: Q01DX009 (ip), vehicle: saline with Tween-80
[13] = endpoint: mean survival time, dose: 50.0 mg/kg/injection, schedule: Q01DX009 (ip), vehicle: saline with Tween-80

SMILES: O=C(CC(=O)C(F)(F)F)C(F)(F)F.[C-]#[O+].[C-]#[O+].[Mn].c1ccc([PH+](c2ccccc2)c2ccccc2)cc1.c1ccc([PH+](c2ccccc2)c2ccccc2)cc1
- T/C (endpoint: mean survival time, dose: 12.5 mg/kg/injection, schedule: Q04DX002 (ip), vehicle: saline with Tween-80): 91 % of control
- T/C (endpoint: mean survival time, dose: 25.0 mg/kg/injection, schedule: Q04DX002 (ip), vehicle: saline with Tween-80): 91 % of control
- T/C (endpoint: mean survival time, dose: 50.0 mg/kg/injection, schedule: Q04DX002 (ip), vehicle: saline with Tween-80): 95 % of control

SMILES: CCCCCCCCCCCCCCCCCC(=O)OC1C(CO)OC2C1Oc1nc(=N)ccn12 (stereo unspecified)
- T/C (endpoint: mean survival time, dose: 12.5 mg/kg/injection, schedule: Q01DX009 (ip), vehicle: other): 167 % of control
- T/C (endpoint: mean survival time, dose: 25.0 mg/kg/injection, schedule: Q01DX009 (ip), vehicle: other): 229 % of control
- T/C (endpoint: mean survival time, dose: 50.0 mg/kg/injection, schedule: Q01DX009 (ip), vehicle: other): 301 % of control
- T/C (endpoint: mean survival time, dose: 100.0 mg/kg/injection, schedule: Q01DX009 (ip), vehicle: other): 280 % of control
- T/C (endpoint: mean survival time, dose: 200.0 mg/kg/injection, schedule: Q01DX009 (ip), vehicle: other): 96 % of control

SMILES: CN(CC(=O)O)Cc1ccccc1
- T/C (endpoint: mean survival time, dose: 50.0 mg/kg/injection, schedule: Q04DX003 (ip), vehicle: saline): 102 % of control
- T/C [1]: 100 % of control
- T/C [2]: 108 % of control

SMILES: Cc1ccc2c(c1)n([O-])c1cc(Cl)ccc1[n+]2=O
- T/C (endpoint: median survival time, dose: 12.5 mg/kg/injection, schedule: Q01DX009 (ip), vehicle: saline with Tween-80): 101 % of control and 111 % of control
- T/C (endpoint: median survival time, dose: 25.0 mg/kg/injection, schedule: Q01DX009 (ip), vehicle: saline with Tween-80): 120 % of control
- T/C (endpoint: median survival time, dose: 30.0 mg/kg/injection, schedule: Q01DX009 (ip), vehicle: saline with Tween-80): 108 % of control
- T/C (endpoint: median survival time, dose: 50.0 mg/kg/injection, schedule: Q01DX009 (ip), vehicle: saline with Tween-80): 114 % of control and 112 % of control
- T/C (endpoint: median survival time, dose: 60.0 mg/kg/injection, schedule: Q01DX009 (ip), vehicle: saline with Tween-80): 117 % of control
- T/C (endpoint: median survival time, dose: 100.0 mg/kg/injection, schedule: Q01DX009 (ip), vehicle: saline with Tween-80): 114 % of control and 122 % of control
- T/C (endpoint: median survival time, dose: 167.0 mg/kg/injection, schedule: Q01DX009 (ip), vehicle: saline with Tween-80): 123 % of control
- T/C (endpoint: median survival time, dose: 200.0 mg/kg/injection, schedule: Q01DX009 (ip), vehicle: saline with Tween-80): 124 % of control and 97 % of control
- T/C (endpoint: median survival time, dose: 278.0 mg/kg/injection, schedule: Q01DX009 (ip), vehicle: saline with Tween-80): 121 % of control

SMILES: CC(C)N1CCOCC1
- T/C (endpoint: mean survival time, dose: 100.0 mg/kg/injection, schedule: Q04DX003 (ip), vehicle: acetone): 100 % of control

SMILES: CC1(C)OCC2OC=CC(=O)C2O1 (stereo unspecified)
- T/C (endpoint: median survival time, dose: 25.0 mg/kg/injection, schedule: Q01DX009 (ip), vehicle: suspension in saline): 94 % of control
- T/C (endpoint: median survival time, dose: 50.0 mg/kg/injection, schedule: Q01DX009 (ip), vehicle: suspension in saline): 103 % of control
- T/C (endpoint: median survival time, dose: 100.0 mg/kg/injection, schedule: Q01DX009 (ip), vehicle: suspension in saline): 101 % of control
- T/C (endpoint: median survival time, dose: 200.0 mg/kg/injection, schedule: Q01DX009 (ip), vehicle: suspension in saline): 97 % of control
- T/C (endpoint: median survival time, dose: 400.0 mg/kg/injection, schedule: Q01DX009 (ip), vehicle: suspension in saline): 104 % of control

SMILES: COC(=O)C(N)Cc1ccc(OC(c2ccccc2)(c2ccccc2)c2ccccc2)cc1 (stereo unspecified)
- T/C (endpoint: mean survival time, dose: 50.0 mg/kg/injection, schedule: Q01DX009 (ip), vehicle: saline): 100 % of control
- T/C (endpoint: mean survival time, dose: 100.0 mg/kg/injection, schedule: Q01DX009 (ip), vehicle: saline): 92 % of control
- T/C (endpoint: mean survival time, dose: 200.0 mg/kg/injection, schedule: Q01DX009 (ip), vehicle: saline): 94 % of control
- T/C (endpoint: mean survival time, dose: 400.0 mg/kg/injection, schedule: Q01DX009 (ip), vehicle: saline): 94 % of control

SMILES: C=C1C(=O)O[C@H]2C[C@@H](C)[C@@H]3[C@@H](O)C[C@@H](O)[C@@]3(C)C[C@H]12
- T/C [3]: 100 % of control
- T/C [4]: 102 % of control
- T/C [5]: 94 % of control
- T/C [6]: 96 % of control
- T/C [7]: 100 % of control
- T/C [8]: 103 % of control

SMILES: C1=C(c2ccccc2)N(c2ccccc2)N=C(c2ccccc2)C1
- T/C [9]: 94 % of control
- T/C [10]: 94 % of control
- T/C [11]: 98 % of control

SMILES: Cc1c(C)c(C)c([N+](=O)[O-])c([N+](=O)[O-])c1C
- T/C (endpoint: mean survival time, dose: 50.0 mg/kg/injection, schedule: Q01DX005 (ip), vehicle: saline with Tween-80): 101 % of control
- T/C (endpoint: mean survival time, dose: 100.0 mg/kg/injection, schedule: Q01DX005 (ip), vehicle: saline with Tween-80): 101 % of control
- T/C (endpoint: mean survival time, dose: 200.0 mg/kg/injection, schedule: Q01DX005 (ip), vehicle: saline with Tween-80): 101 % of control

SMILES: C#CCOC(=O)Nc1cccc(OC(=O)NC)c1
- T/C [4]: 99 % of control
- T/C [6]: 101 % of control
- T/C [8]: 97 % of control

SMILES: O=C(Nc1cc(Cl)c(NC(=O)c2ccccc2)c(Cl)c1)c1ccccc1
- T/C [9]: 96 % of control
- T/C [10]: 89 % of control
- T/C [11]: 86 % of control

SMILES: O=C(CCl)OCC(Cl)Cl
- T/C [3]: 104 % of control
- T/C [5]: 112 % of control

SMILES: CCCC(=O)OCc1ccc(Cl)cc1Cl
- T/C [3]: 96 % of control
- T/C [4]: 91 % of control
- T/C [5]: 98 % of control
- T/C [6]: 89 % of control
- T/C [7]: 98 % of control
- T/C [8]: 96 % of control

SMILES: CC1COCC(C)N1N=Nc1ccccc1-c1nc(N)c2ccccc2n1 (stereo unspecified)
- T/C (endpoint: mean survival time, dose: 100.0 mg/kg/injection, schedule: Q04DX002 (ip), vehicle: Klucel (hydroxypropylcellulose) (HPC)): 88 % of control
- T/C (endpoint: mean survival time, dose: 200.0 mg/kg/injection, schedule: Q04DX002 (ip), vehicle: Klucel (hydroxypropylcellulose) (HPC)): 92 % of control
- T/C (endpoint: mean survival time, dose: 400.0 mg/kg/injection, schedule: Q04DX002 (ip), vehicle: Klucel (hydroxypropylcellulose) (HPC)): 98 % of control

SMILES: O=C(CO)c1ccc([N+](=O)[O-])cc1
- T/C (endpoint: mean survival time, dose: 3.12 mg/kg/injection, schedule: Q01DX009 (ip), vehicle: saline with Tween-80): 98 % of control and 101 % of control
- T/C (endpoint: mean survival time, dose: 6.25 mg/kg/injection, schedule: Q01DX009 (ip), vehicle: saline with Tween-80): 96 % of control and 101 % of control
- T/C (endpoint: mean survival time, dose: 12.5 mg/kg/injection, schedule: Q01DX009 (ip), vehicle: saline with Tween-80): 98 % of control and 101 % of control
- T/C [12]: 95 % of control and 96 % of control
- T/C [13]: 101 % of control
- T/C [3]: 95 % of control and 101 % of control

SMILES: CNC(=O)NNC(=O)c1ccccc1Cl
- T/C [3]: 88 % of control
- T/C [5]: 108 % of control
- T/C [7]: 98 % of control

SMILES: O=C(O)c1cc(Cc2ccc(O)c(C(=O)O)c2)ccc1O (tested in a mixture with another compound)
- T/C (endpoint: median survival time, dose: 6.25 mg/kg/injection, schedule: Q01DX009 (ip), vehicle: Klucel (hydroxypropylcellulose) (HPC)): 101 % of control
- T/C (endpoint: median survival time, dose: 12.5 mg/kg/injection, schedule: Q01DX009 (ip), vehicle: Klucel (hydroxypropylcellulose) (HPC)): 104 % of control
- T/C (endpoint: median survival time, dose: 25.0 mg/kg/injection, schedule: Q01DX009 (ip), vehicle: Klucel (hydroxypropylcellulose) (HPC)): 104 % of control
- T/C (endpoint: median survival time, dose: 50.0 mg/kg/injection, schedule: Q01DX009 (ip), vehicle: Klucel (hydroxypropylcellulose) (HPC)): 97 % of control
- T/C (endpoint: median survival time, dose: 100.0 mg/kg/injection, schedule: Q01DX009 (ip), vehicle: Klucel (hydroxypropylcellulose) (HPC)): 96 % of control
- T/C (endpoint: median survival time, dose: 200.0 mg/kg/injection, schedule: Q01DX009 (ip), vehicle: Klucel (hydroxypropylcellulose) (HPC)): 89 % of control

SMILES: CC(C)(C)OC(=O)NC(CC(N)=O)C(=O)O (stereo unspecified)
- T/C (endpoint: mean survival time, dose: 100.0 mg/kg/injection, schedule: Q01DX001 (ip), vehicle: saline sonified): 98 % of control
- T/C (endpoint: mean survival time, dose: 200.0 mg/kg/injection, schedule: Q01DX001 (ip), vehicle: saline sonified): 93 % of control
- T/C (endpoint: mean survival time, dose: 400.0 mg/kg/injection, schedule: Q01DX001 (ip), vehicle: saline sonified): 98 % of control

SMILES: NNC(=O)COc1ccc(Cl)cc1Cl
- T/C [12]: 102 % of control
- T/C [13]: 105 % of control
- T/C [3]: 104 % of control

SMILES: CC(=O)OCC1OC2OC(C)(C)OC2C2OC(C)(C)OC12 (stereo unspecified)
- T/C [4]: 104 % of control
- T/C [6]: 101 % of control
- T/C [8]: 106 % of control

SMILES: C=C(C)c1c2ccccc2cc2cccc(Sc3ccccc3)c12
- T/C [3]: 95 % of control
- T/C [5]: 93 % of control
- T/C [7]: 95 % of control

SMILES: O=C(O)c1c(O)cccc1O
- T/C (endpoint: mean survival time, dose: 50.0 mg/kg/injection, schedule: Q01DX001 (ip), vehicle: saline): 98 % of control
- T/C (endpoint: mean survival time, dose: 100.0 mg/kg/injection, schedule: Q01DX001 (ip), vehicle: saline): 98 % of control
- T/C (endpoint: mean survival time, dose: 200.0 mg/kg/injection, schedule: Q01DX001 (ip), vehicle: saline): 101 % of control

SMILES: O=CNCCO
- T/C [3]: 98 % of control
- T/C [1]: 113 % of control
- T/C [5]: 94 % of control
- T/C [2]: 108 % of control
- T/C [7]: 93 % of control
- T/C (endpoint: mean survival time, dose: 400.0 mg/kg/injection, schedule: Q04DX003 (ip), vehicle: saline): 110 % of control

SMILES: CCCCCOc1nccc(N)n1
- T/C [9]: 98 % of control
